Measured values published in US20220096450A1, “Compounds and Methods for Treating or Preventing Heart Failure” (DREXEL UNIVERSITY, priority 2019, published 2022).
pIC50: −log10 of the molar value. Read-outs that look alike come from different tables or passages of the source.

Target: SQOR (Homo sapiens, UniProt Q9Y6N5)
Assay: DCIP endpoint assay of SQOR activity
Assay type: biochemical
Details: read-out: IC50
Procedure: The assay is based on the ability of reduced CoQ1, which is produced in the SQOR reaction, to nonenzymically reduce 2,6-dichloroindiphenol (DCIP) (Δεox-red=20 mM−1 cm−1 at 600 nm). Reaction mixtures containing SQOR, substrates (H2S, sulfite, CoQ1) and various concentrations of an inhibitor are incubated in 96-well plates for 60 s. The reactions are quenched by addition of formaldehyde and N-ethylmaleimide to denature SQOR and consume unreacted H2S, respectively, and are then incubated for 10 min prior to addition of DCIP. The absorbance at 600 nm is read 30 s after DCIP addition by using a BioTek Synergy 2 plate reader.

[1] = Table 1, SAR of Set A/A′ and Set B

Chain of SQOR (Q9Y6N5 whole entry): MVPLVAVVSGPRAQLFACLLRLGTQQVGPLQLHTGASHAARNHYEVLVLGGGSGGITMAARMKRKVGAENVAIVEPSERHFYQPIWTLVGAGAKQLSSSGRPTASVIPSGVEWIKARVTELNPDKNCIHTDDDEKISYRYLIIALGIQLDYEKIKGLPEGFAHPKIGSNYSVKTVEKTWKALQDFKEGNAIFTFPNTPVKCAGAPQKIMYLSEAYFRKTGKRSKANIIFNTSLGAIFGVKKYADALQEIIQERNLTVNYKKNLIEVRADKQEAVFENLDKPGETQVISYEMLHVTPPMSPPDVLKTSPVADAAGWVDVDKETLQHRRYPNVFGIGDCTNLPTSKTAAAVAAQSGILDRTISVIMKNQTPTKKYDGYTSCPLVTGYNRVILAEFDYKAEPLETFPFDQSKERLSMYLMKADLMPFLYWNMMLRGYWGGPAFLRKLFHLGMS

pIC50 [1] | pIC50 (Table 3) | SMILES | also measured
7.52 |  | CCOC(=O)COc1nc(-c2ccccc2)cc(-c2ccccc2)c1C#N [Compound 11, ethyl 2-((3-cyano-4,6-diphenylpyridin-2-yl)oxy)acetate] | 
6.05 |  | CCOc1nc(-c2ccccc2)cc(-c2ccc3c(c2)OCO3)c1C#N [Compound 12, 4-(benzo[d][1,3]dioxol-5-yl)-2-ethoxy-6-phenylnicotinonitrile] | 
7.72 |  | CCOc1nc(-c2ccccc2)cc(-c2ccccc2)c1C#N [Compound 13, 2-ethoxy-4,6-diphenylnicotinonitrile] | 
6.22 |  | N#Cc1c(-c2ccccc2)cc(-c2ccc(F)cc2)nc1N [Compound 14, 2-amino-6-(4-fluorophenyl)-4-phenylnicotinonitrile] | 
5.96 |  | Cc1ccc(C)c(-c2cc(-c3ccc4c(c3)OCO4)c(C#N)c(N)n2)c1 [Compound 15, 2-amino-4-(benzo[d][1,3]dioxol-5-yl)-6-(2,5-dimethylphenyl)nicotinonitrile] | 
4.96 |  | Cc1ccc(-c2cc(-c3ccccc3)c(C#N)c(N)n2)cc1 [Compound 16, 2-amino-4-phenyl-6-(p-tolyl)nicotinonitrile] | 
4.92 |  | N#Cc1c(-c2ccccc2)cc(-c2ccc(O)cc2)nc1N [Compound 17, 2-amino-6-(4-hydroxyphenyl)-4-phenylnicotinonitrile] | 
4.85 |  | Cc1ccc(-c2cc(-c3ccc4c(c3)OCO4)c(C#N)c(N)n2)cc1C [Compound 18, 2-amino-4-(benzo[d][1,3]dioxol-5-yl)-6-(3,4-dimethylphenyl)nicotinonitrile] | 
6.36 |  | O=[N+]([O-])c1cc(Cl)c(-n2cccc2)cc1N1CCOCC1 [Compound 19, 4-(4-chloro-2-nitro-5-(1H-pyrrol-1-yl)phenyl)morpholine] | 
6.34 |  | O=[N+]([O-])c1cc(Cl)c(-n2cccc2)cc1N1CCCC1 [Compound 20, 1-(2-chloro-4-nitro-5-(pyrrolidin-1-yl)phenyl)-1H-pyrrole] | 
 |  | Cc1cc([N+](=O)[O-])c(Sc2ccc(Cl)cc2)cc1C1SCCS1 [Compound 32, 2-(5-((4-chlorophenyl)thio)-2-methyl-4-nitrophenyl)-1,3-dithiolane] | pIC50 (Table 2, SAR of Set C): 7.62
 |  | Cc1cc([N+](=O)[O-])c(S(=O)(=O)c2ccccc2)cc1C(=O)c1ccccc1 [Compound 33, (2-methyl-4-nitro-5-(phenylsulfonyl)phenyl)(phenyl)methanone] | pIC50 (Table 2, SAR of Set C): 6.82
 |  | COc1ccc(Sc2ccc(C)cc2)c([N+](=O)[O-])c1 [Compound 34, (4-methoxy-2-nitrophenyl)(p-tolyl)sulfane] | pIC50 (Table 2, SAR of Set C): 5.31
 | 6.64 | CCOC(=O)N1CCN(CCOc2nc(-c3ncccc3C)cc(-c3ccc(F)cc3)c2C#N)CC1 [Ethyl 4-(2-(3-cyano-4-(4-fluorophenyl)-6-(3-methylpyridin-2-yl)pyridin-2-yloxy)ethyl)piperazine-1-carboxylate] | 
 | 6.92 | Cc1cccnc1-c1cc(-c2ccc(F)cc2)c(C#N)c(OCCN2CCN(C(=O)OC(C)C)CC2)n1 [Isopropyl 4-(2-(3-cyano-4-(4-fluorophenyl)-6-(3-methylpyridin-2-yl)pyridin-2-yloxy)ethyl)piperazine-1-carboxylate] | 
 | 7.02 | COC(=O)COCCOc1nc(-c2ncccc2C)cc(-c2ccc(F)cc2)c1C#N [Methyl 2-(3-cyano-4-(4-fluorophenyl)-6-(3-methylpyridin-2-yl)pyridin-2-yloxy) 2-(2-methoxyethoxy) acetate] | 
 | 6.27 | COC(=O)N1CCN(CCOc2nc(-c3ncccc3C)cc(-c3ccc(F)cc3)c2C#N)CC1 [Methyl 4-(2-(3-cyano-4-(4-fluorophenyl)-6-(3-methylpyridin-2-yl)pyridin-2-yloxy)ethyl)piperazine-1-carboxylate] | 
 | 5.72 | CC(=O)NCCOc1nc(-c2ccccn2)cc(-c2ccc(F)cc2)c1C#N [N-(2-(3-Cyano-4-(4-fluorophenyl)-6-(pyridin-2-yl)pyridin-2-yloxy)ethyl)acetamide] | 

SMILES | pIC50 [1] | pIC50 (Table 3) | also measured
Cc1cccnc1-c1cc(-c2ccc(F)cc2)c(C#N)c(OCCN2CCN(C(=O)OC(C)(C)C)CC2)n1 [tert-Butyl 4-(2-(3-cyano-4-(4-fluorophenyl)-6-(3-methylpyridin-2-yl)pyridin-2-yloxy)ethyl)piperazine-1-carboxylate] |  | 7.37 | 
